Reference: patent US9850283B2, “Macrocyclic inhibitors of the PD-1/PD-L1 and CD80(B7-1)/PD-L1 protein/protein interactions” (BRISTOL-MYERS SQUIBB COMPANY, priority 2013, dated 2017)
Like-named read-outs stand apart in the source and are kept apart here. Positions of bridges follow the written chain, without caps; N, C: chain ends. Non-standard residues stand in square brackets, D forms with d. Residues, ends and D or L forms follow the SMILES beside them. ξ: configuration not given here. Bip = N[C@@H](Cc1ccc(-c2ccccc2)cc1)C(=O)O; Phe(4-F) = N[C@@H](Cc1ccc(F)cc1)C(=O)O; 2Nal = N[C@@H](Cc1ccc2ccccc2c1)C(=O)O; NMeF = CN[C@@H](Cc1ccccc1)C(=O)O; 3Thi = N[C@@H](Cc1ccsc1)C(=O)O; NMeNle = CCCC[C@H](NC)C(=O)O; NMeV = CN[C@H](C(=O)O)C(C)C; dNle = CCCC[C@@H](N)C(=O)O; NMeA = CN[C@@H](C)C(=O)O; ξNMeA = CNC(C)C(=O)O; ξV = CC(C)C(N)C(=O)O; ξP = O=C(O)C1CCCN1; ξC = NC(CS)C(=O)O; Sar = CNCC(=O)O

Experiments:
Hu PD-L1/PD-1 = Hu PD-L1/PD-1 (Homo sapiens, UniProt Q9NZQ7); assay: Cell binding assay Hu PD-L1/PD-1 (Tables 11-13, cell line not given); format: cell-based
Protocol: The ability of the macrocyclic peptides of the present disclosure to bind to Jurkat, mouse B cell line (LK35.2), and a human lung adenocarcinoma cell line (L2987) was investigated. Jurkat-PD-1 Cell Binding Assay. Phycoerythrin (PE) was covalently linked to the Ig epitope tag of human PD-L1-Ig and fluorescently-labeled PD-L1-Ig was used for binding studies with a Jurkat cell line over-expressing human PD-1 (Jurkat-PD-1). […] Cells were washed 3× in dPBS. Cells were resuspended in 200 μl of dPBS and binding was measured by flow cytometry. LK35.2-hPD-L1 Cell Binding Assay. Phycoerythrin (PE) was covalently linked to the Ig eptitope tag of human PD-1-Ig and fluorescently-labeled PD-1-Ig was used for binding studies with a mouse B cell line (LK35.2) stably over-expressing human PD-L1 (LK35.2-hPD-L1). Briefly, […] LK35.2-hPD-L1 cells were pre-incubated with inhibitor for 15 m in a 30 μl volume of RPMI supplemented with 2% fetal calf serum. 20 μl of PE-labeled PD-1-Ig (2 nM final), diluted in RPMI supplemented with 2% fetal calf serum, was dispensed on top of cells and inhibitor and binding was allowed to take place for 1 h at room temperature. Cells were washed 3× in dPBS. Cells were resuspended in 200 μl of dPBS and binding was measured by flow cytometry. L2987 Cellomics Cell Binding Assay. Phycoerythrin (PE) was covalently linked to the Ig eptitope tag of human PD-1-Ig and fluorescently-labeled PD-1-Ig was used for binding studies with a human lung adenocarcinoma cell line (L2987) which naturally expresses PD-L1. […] The following day, inhibitors were diluted in serum-free DMEM and 25 μl was dispensed on top of cells. […] Samples were incubated for 1 h at 37° C. followed by 2 washes in dPBS and fixation for 30 m with 4% paraformaldehyde. Samples were further washed 2× in dPBS. Hoechst (final 1 μg/ml) was added to final wash to stain nuclei. Plates were processed using a Cellomics […]®.

Human PD-L1/PD-1 = target: T1, Human PD-L1/PD-1 (Homo sapiens, UniProt Q9NZQ7); assay: HTRF PD-1-Ig/PD-L1-His binding assay (human PD-L1); conditions: Table 8, Compound No. 1 variant macrocyclic peptides; read-out: HTRF Human PD-L1/PD-1 Binding Assay IC50
T1 construct: made in house; host or cells: HEK293T
Method in brief: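 Soluble PD-1-Ig binding to PD-L1-His measured by HTRF in dPBS with 0.1% BSA and 0.05% Tween-20. Detection used europium cryptate anti-Ig antibody (1 nM final) and APC anti-His antibody (20 nM final) added on top of the binding reaction.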

[1] = Table 13, Compound No. 71 series

T1 sequence (Q9NZQ7 with tags, fused parts or gaps): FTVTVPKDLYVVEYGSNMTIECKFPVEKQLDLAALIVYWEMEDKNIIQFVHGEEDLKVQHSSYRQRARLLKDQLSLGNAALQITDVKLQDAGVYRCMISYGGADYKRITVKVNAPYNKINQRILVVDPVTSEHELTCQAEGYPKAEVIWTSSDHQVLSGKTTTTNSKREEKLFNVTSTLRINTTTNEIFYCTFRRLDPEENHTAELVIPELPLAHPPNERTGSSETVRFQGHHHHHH
Hu PD-L1/PD-1, sequence (Q9NZQ7 19-290): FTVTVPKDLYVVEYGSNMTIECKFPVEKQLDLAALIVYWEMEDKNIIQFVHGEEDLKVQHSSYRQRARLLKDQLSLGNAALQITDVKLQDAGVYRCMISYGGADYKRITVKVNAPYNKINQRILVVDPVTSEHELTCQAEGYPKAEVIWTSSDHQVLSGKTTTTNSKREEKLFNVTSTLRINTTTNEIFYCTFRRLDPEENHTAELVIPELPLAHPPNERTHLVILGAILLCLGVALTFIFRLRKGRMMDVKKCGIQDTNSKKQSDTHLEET

| Compound | IC50 (Hu PD-L1/PD-1) [nM] | IC50 (Human PD-L1/PD-1) [nM] | IC50 (Hu PD-L1/PD-1; [1]) [nM] |
| --- | --- | --- | --- |
| CCCC[C@H]1NC(=O)[C@H](Cc2c[nH]c3ccccc23)NC(=O)[C@H](CO)NC(=O)[C@H](Cc2c[nH]c3ccccc23)NC(=O)CN(C)C(=O)[C@H](CC(C)C)NC(=O)[C@H](Cc2cnc[nH]2)NC(=O)[C@@H]2CCCN2C(=O)[C@H](CC(N)=O)NC(=O)[C@H](C)N(C)C(=O)[C@H](Cc2ccccc2)NC(=O)CSC[C@@H](C(=O)NCC(N)=O)NC(=O)[C@H](CCCNC(=N)N)NC(=O)[C@H](CCCC)N(C)C1=O [Compound No. 70] ({CH2CO}-F[NMeA]NPHL[Sar]WSW[dNle][NMeNle]RCG-NH2; thioether N-14) | > 10000 |  |  |
| CCCC[C@H]1C(=O)N(C)[C@@H](CCCC)C(=O)N[C@@H](CCCNC(=N)N)C(=O)NC(C(=O)NCC(N)=O)CSCC(=O)N[C@@H](Cc2ccsc2)C(=O)N(C)[C@@H](C)C(=O)N[C@@H](CC(N)=O)C(=O)N2CCC[C@H]2C(=O)N[C@@H](Cc2cnc[nH]2)C(=O)N[C@@H](CC(C)C)C(=O)N(C)CC(=O)N[C@@H](Cc2c[nH]c3ccccc23)C(=O)N[C@@H](CO)C(=O)N[C@@H](Cc2c[nH]c3ccccc23)C(=O)N1C (some centres unmarked) [Compound No. 40] ({CH2CO}-[3Thi][NMeA]NPHL[Sar]WSW[NMeNle][NMeNle]R[ξC]G-NH2; thioether N-14) | 20 | 9 |  |
| CCCC[C@H]1C(=O)N(C)[C@@H](CCCC)C(=O)N[C@@H](CCCNC(=N)N)C(=O)N[C@@H](C(=O)NCC(N)=O)CSCC(=O)N[C@@H](Cc2ccc3ccccc3c2)C(=O)N(C)[C@@H](C)C(=O)N[C@@H](CC(N)=O)C(=O)N2CCC[C@H]2C(=O)N[C@@H](Cc2cnc[nH]2)C(=O)N[C@@H](CC(C)C)C(=O)N(C)CC(=O)N[C@@H](Cc2c[nH]c3ccccc23)C(=O)N[C@@H](CO)C(=O)N[C@@H](Cc2c[nH]c3ccccc23)C(=O)N1C [Compound No. 26] ({CH2CO}-[2Nal][NMeA]NPHL[Sar]WSW[NMeNle][NMeNle]R[dC]G-NH2; thioether N-14) | 13 | 15 |  |
| CCCC[C@H]1C(=O)N(C)[C@@H](CCCC)C(=O)N[C@@H](CCCNC(=N)N)C(=O)N[C@H](C(=O)NCC(N)=O)CSCC(=O)N[C@@H](Cc2ccccc2)C(=O)N(C)C(C)C(=O)N[C@@H](CC(N)=O)C(=O)N2CCC[C@H]2C(=O)N[C@@H](Cc2cnc[nH]2)C(=O)N[C@@H](CC(C)C)C(=O)N[C@@H](Cc2cnc[nH]2)C(=O)N[C@@H](Cc2c[nH]c3ccccc23)C(=O)N[C@@H](CO)C(=O)N[C@@H](Cc2c[nH]c3ccccc23)C(=O)N1C (some centres unmarked) [Compound No. 53] ({CH2CO}-F[ξNMeA]NPHLHWSW[NMeNle][NMeNle]RCG-NH2; thioether N-14) | 47 | 34 |  |
| CCCC[C@H]1C(=O)N(C)[C@@H](CCCC)C(=O)N[C@@H](CCCNC(=N)N)C(=O)N[C@H](C(=O)NCC(N)=O)CSCC(=O)N[C@@H](Cc2ccccc2)C(=O)N(C)[C@@H](C)C(=O)N[C@@H](CC(N)=O)C(=O)N2CCC[C@H]2C(=O)N[C@@H](Cc2cnc[nH]2)C(=O)N[C@@H](CC(C)C)C(=O)N(C)CC(=O)N[C@@H](Cc2c[nH]c3ccccc23)C(=O)N[C@H](CC(N)=O)C(=O)N[C@@H](Cc2c[nH]c3ccccc23)C(=O)N1C [Compound No. 58] ({CH2CO}-F[NMeA]NPHL[Sar]W[dN]W[NMeNle][NMeNle]RCG-NH2; thioether N-14) | > 10000 | 8980 |  |
| CCCC[C@H]1C(=O)N(C)[C@@H](CCCC)C(=O)N[C@@H](CCCNC(=N)N)C(=O)N[C@@H](C(=O)NCC(N)=O)CSCC(=O)N[C@@H](Cc2ccc(F)cc2)C(=O)N(C)[C@@H](C)C(=O)N[C@@H](CC(N)=O)C(=O)N2CCC[C@H]2C(=O)N[C@@H](Cc2cnc[nH]2)C(=O)N[C@@H](CC(C)C)C(=O)N(C)CC(=O)N[C@@H](Cc2c[nH]c3ccccc23)C(=O)N[C@@H](CO)C(=O)N[C@@H](Cc2c[nH]c3ccccc23)C(=O)N1C [Compound No. 32] ({CH2CO}-[Phe(4-F)][NMeA]NPHL[Sar]WSW[NMeNle][NMeNle]R[dC]G-NH2; thioether N-14) | 25 |  |  |
| CCCC[C@H]1C(=O)N(C)[C@@H](CCCC)C(=O)N[C@@H](CCCNC(=N)N)C(=O)N[C@H](C(=O)NCC(N)=O)CSCC(=O)N[C@@H](Cc2ccccc2)C(=O)N(C)[C@@H](C(C)C)C(=O)N[C@@H](CC(N)=O)C(=O)N2CCC[C@H]2C(=O)N[C@@H](Cc2c[nH]cn2)C(=O)N[C@@H](CC(C)C)C(=O)N(C)CC(=O)N[C@@H](Cc2c[nH]c3ccccc23)C(=O)N[C@@H](CO)C(=O)N[C@@H](Cc2c[nH]c3ccccc23)C(=O)N1C [Compound No. 41] ({CH2CO}-F[NMeV]NPHL[Sar]WSW[NMeNle][NMeNle]RCG-NH2; thioether N-14) | > 10000 |  |  |
| CCCC[C@H]1C(=O)N(C)[C@@H](CCCC)C(=O)N[C@@H](CCCNC(=N)N)C(=O)N[C@H](C(=O)NCC(N)=O)CSCC(=O)N[C@@H](Cc2ccccc2)C(=O)N(C)[C@@H](C)C(=O)N[C@@H](CC(N)=O)C(=O)N2CCC[C@H]2C(=O)N[C@@H](Cc2cnc[nH]2)C(=O)N[C@@H](CC(C)C)C(=O)N(C)CC(=O)N[C@@H](Cc2c[nH]c3ccccc23)C(=O)N[C@@H](CO)C(=O)N[C@@H](CC(C)C)C(=O)N1C [Compound No. 63] ({CH2CO}-F[NMeA]NPHL[Sar]WSL[NMeNle][NMeNle]RCG-NH2; thioether N-14) | > 10000 |  |  |
| CCCC[C@H]1C(=O)N(C)[C@@H](CCCC)C(=O)N[C@@H](CCCNC(=N)N)C(=O)N[C@H](C(=O)NCC(N)=O)CSCC(=O)N[C@@H](Cc2ccccc2)C(=O)N(C)[C@@H](C)C(=O)N[C@@H](CC(N)=O)C(=O)N[C@@H](C)C(=O)N[C@@H](Cc2cnc[nH]2)C(=O)N[C@@H](CC(C)C)C(=O)N(C)CC(=O)N[C@@H](Cc2c[nH]c3ccccc23)C(=O)N[C@@H](CO)C(=O)N[C@@H](Cc2c[nH]c3ccccc23)C(=O)N1C [Compound No. 9] ({CH2CO}-F[NMeA]NAHL[Sar]WSW[NMeNle][NMeNle]RCG-NH2; thioether N-14) | 71 |  |  |
| CCCC[C@H]1C(=O)N(C)[C@@H](CCCC)C(=O)N[C@@H](CCCNC(=N)N)C(=O)N[C@H](C(=O)NCC(N)=O)CSCC(=O)N[C@@H](C)C(=O)N(C)[C@@H](C)C(=O)N[C@@H](CC(N)=O)C(=O)N2CCCC2C(=O)N[C@@H](Cc2cnc[nH]2)C(=O)N[C@@H](CC(C)C)C(=O)N(C)CC(=O)N[C@@H](Cc2c[nH]c3ccccc23)C(=O)N[C@@H](CO)C(=O)N[C@@H](Cc2c[nH]c3ccccc23)C(=O)N1C (some centres unmarked) [Compound No. 5] ({CH2CO}-A[NMeA]N[ξP]HL[Sar]WSW[NMeNle][NMeNle]RCG-NH2; thioether N-14) | > 10000 |  |  |
| CCCC[C@H]1C(=O)N(C)[C@@H](CCCC)C(=O)N[C@@H](CCCNC(=N)N)C(=O)N[C@H](C(=O)NCC(N)=O)CSCC(=O)N[C@@H](Cc2ccc(-c3ccccc3)cc2)C(=O)N(C)[C@@H](C)C(=O)N[C@@H](CC(N)=O)C(=O)N2CCC[C@H]2C(=O)N[C@@H](Cc2cnc[nH]2)C(=O)N[C@@H](CC(C)C)C(=O)N(C)CC(=O)N[C@@H](Cc2c[nH]c3ccccc23)C(=O)N[C@@H](CO)C(=O)N[C@@H](Cc2c[nH]c3ccccc23)C(=O)N1C [Compound No. 28] ({CH2CO}-[Bip][NMeA]NPHL[Sar]WSW[NMeNle][NMeNle]RCG-NH2; thioether N-14) | 82 |  |  |
| CCCC[C@H]1C(=O)N(C)CC(=O)N[C@@H](CC(=O)O)C(=O)NC(C(C)C)C(=O)N(C)[C@@H](Cc2ccccc2)C(=O)N[C@@H](Cc2ccc(O)cc2)C(=O)N(C)CC(=O)N[C@@H](Cc2c[nH]c3ccccc23)C(=O)N[C@@H](C)C(=O)N[C@@H](CC(C)C)C(=O)N[C@H](C(=O)NCC(N)=O)CSCC(=O)N[C@@H](Cc2ccccc2)C(=O)N(C)[C@@H](Cc2ccccc2)C(=O)N1C (some centres unmarked) [Compound No. 86] ({CH2CO}-F[NMeF][NMeNle][Sar]D[ξV][NMeF]Y[Sar]WALCG-NH2; thioether N-13) |  |  | 7250 |
| CCCC[C@H]1C(=O)N(C)CC(=O)N[C@@H](CC(=O)O)C(=O)N[C@@H](C(C)C)C(=O)N(C)[C@@H](Cc2ccccc2)C(=O)N[C@@H](Cc2ccc(O)cc2)C(=O)N(C)CC(=O)N[C@@H](Cc2c[nH]c3ccccc23)C(=O)N[C@@H](Cc2ccc(O)cc2)C(=O)N[C@@H](CC(C)C)C(=O)N[C@H](C(=O)NCC(N)=O)CSCC(=O)N[C@@H](C)C(=O)N(C)[C@@H](Cc2ccccc2)C(=O)N1C [Compound No. 72] (HELM PEPTIDE1{[O=C(C[*:3])[*:2]].A.[meF].[CCCC[C@@H](C(=O)[*:2])N(C)[*:1]].[Sar].D.V.[meF].Y.[Sar].W.Y.L.C.G.[am]}$PEPTIDE1,PEPTIDE1,1:R3-14:R3$$$V2.0) |  |  | > 10000 |
